Test systems include OVCAR-8; U-251; SR; SNB-19; HCT-15; LOX IMVI; SN12C; HCT-116; UACC-257; SF-268; TK-10; EKVX; SK-MEL-5; RPMI-8226.
Test in all cases: NCI tumour cell line growth inhibition, 48 h

SMILES strings stand for the structures.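 Dose response: 5 concentrations. Exposure: 48 h. Format: 96-well plates. Endpoint: linear interpolation; highest concentration if not reached. GI50 marks 50% less growth.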 Activity calls are given as the source filed them. Cut-off read from the data, not from the text of the source: active = GI50 up to about 1.1 µM and inactive = higher. Where only a bound is given, the exact number is not on record here.

On to `Cc1ccc(Cn2c(C)nc3c2C(=O)c2ccccc2C3=O)cc1`, for which the GI50 in the assay with OVCAR-8 is 3.05 µM (inactive); in the assay on U-251, 1.88 µM (inactive); with SR, 0.331 µM (active); in the assay with SNB-19 it was 11.6 µM (inactive); in the assay with HCT-15, 0.619 µM; with LOX IMVI, 0.597 µM (active). For the same compound, the GI50 is 6.18 µM (inactive) in the assay with SN12C; 0.755 µM (active) in the assay with HCT-116; 11.7 µM (inactive) in the assay on UACC-257; 3.43 µM (inactive) in the assay with SF-268; 13 µM (inactive) in the assay with TK-10; 18.2 µM (inactive) in the assay on EKVX. Moreover, the GI50 in the assay with SK-MEL-5 is 4.52 µM (inactive).
With `COc1ccc(/C(=N\NC(=O)C(N)=O)C(c2ccc(OC)cc2)C2(O)C(=O)Nc3c(Cl)cccc32)cc1` (stereo not drawn), the GI50 in the assay on OVCAR-8 is > 100 µM (inactive); in the assay on RPMI-8226, > 100 µM (inactive); with U-251, > 100 µM (inactive); in the assay with SNB-19, > 100 µM (inactive); with LOX IMVI, 58.6 µM (inactive); in the assay on SN12C, > 100 µM (inactive). Besides, the GI50 in the assay on HCT-116, in the assay with UACC-257, in the assay on SF-268, in the assay with TK-10, in the assay on EKVX and in the assay on SK-MEL-5 was > 100 µM (inactive) each time.
Take `Cc1ccc(CC(C)N)cc1` (stereo not drawn): the GI50 in the assay on OVCAR-8 is > 100 µM (inactive); in the assay with RPMI-8226, > 100 µM (inactive); in the assay with U-251, > 100 µM (inactive); in the assay on SNB-19 it was > 100 µM (inactive); in the assay with HCT-15, greater than 100 µM; with LOX IMVI it was > 100 µM (inactive). Besides, the GI50 in the assay with SN12C, in the assay with HCT-116, in the assay with UACC-257, in the assay with SF-268, in the assay with TK-10 and with EKVX was > 100 µM (inactive) throughout. For the same compound, the GI50 with SK-MEL-5 is > 100 µM (inactive).
Take `CC1=Nc2ccccc2SC(c2c(Cl)cccc2Cl)C1` (stereo not drawn): the GI50 was 0.229 µM (active) in the assay with OVCAR-8; 0.314 µM (active) with RPMI-8226; 0.345 µM (active) in the assay with U-251; 1.38 µM (inactive) with SNB-19; 1.19 µM in the assay with HCT-15; 0.277 µM (active) in the assay with LOX IMVI. For the same compound, the GI50 in the assay on SN12C was 1.33 µM (inactive); with HCT-116, 0.225 µM (active); in the assay with UACC-257 it was 1.57 µM (inactive); in the assay on SF-268, 1.01 µM (active); in the assay on TK-10 it was 2.22 µM (inactive); with EKVX it was 2.12 µM (inactive). In addition, in the assay with SK-MEL-5, the GI50 was 1.49 µM (inactive).
For `CN(Cc1ccccc1)C1(N(C)Cc2ccccc2)CC1`, the GI50 in the assay with OVCAR-8 was > 100 µM (inactive); with U-251, > 100 µM (inactive); with SNB-19, > 100 µM (inactive); in the assay with HCT-15, greater than 100 µM; in the assay on LOX IMVI, > 100 µM (inactive); with SN12C it was > 100 µM (inactive). Besides, the GI50 with HCT-116, in the assay with UACC-257, with SF-268, in the assay on TK-10, in the assay on EKVX and in the assay on SK-MEL-5 was > 100 µM (inactive) in each case.
Regarding `COc1cc2c(c(O)c1C)C(=O)CC(c1ccccc1)O2` (stereo not drawn), the GI50 was > 100 µM (inactive) in the assay on OVCAR-8; 56.4 µM (inactive) in the assay with U-251; 66.4 µM in the assay on HCT-15; > 10 µM (inactive) with LOX IMVI; 37.5 µM (inactive) in the assay with SN12C; 31.7 µM (inactive) with HCT-116. Moreover, the GI50 is 38.5 µM (inactive) with UACC-257; > 100 µM (inactive) in the assay on SF-268; 32.2 µM (inactive) in the assay with TK-10; 89.3 µM (inactive) in the assay with EKVX; 18.2 µM (inactive) with SK-MEL-5.
In the case of `CC(C)(C)c1cc([Si](C)(C)C)c(C#N)c([Si](C)(C)C)c1`, the GI50 with OVCAR-8 was > 100 µM (inactive); in the assay with U-251, 36.1 µM (inactive); in the assay on SR, 34.9 µM (inactive); in the assay on SNB-19, 62.1 µM (inactive); with HCT-15, greater than 100 µM; in the assay with LOX IMVI, 78.5 µM (inactive). Also, the GI50 in the assay on SN12C is > 100 µM (inactive); with HCT-116, 54.8 µM (inactive); in the assay on UACC-257 it was 34.3 µM (inactive); with SF-268 it was 41.7 µM (inactive); with TK-10 it was > 100 µM (inactive); with EKVX, > 100 µM (inactive).
With `[O-][Cl+3]([O-])([O-])[O-].c1ccc(-c2[o+]c(-c3ccccc3)c(-c3ccccc3)c(-c3ccccc3)c2-c2ccccc2)cc1`, the GI50 in the assay on OVCAR-8 was > 100 µM (inactive); with RPMI-8226 it was 24.9 µM (inactive); with U-251, > 100 µM (inactive); in the assay on HCT-15, greater than 100 µM; in the assay with LOX IMVI, > 100 µM (inactive); in the assay with SN12C, > 100 µM (inactive). In addition, the GI50 with HCT-116, in the assay with UACC-257, with SF-268, in the assay on TK-10, in the assay on EKVX and in the assay on SK-MEL-5 was > 100 µM (inactive) each time.
As for `COc1cc(Nc2nc3ccccc3nc2-c2cccs2)cc(OC)c1OC`, the GI50 in the assay with OVCAR-8 is > 10 µM (inactive); in the assay on RPMI-8226, 26.9 µM (inactive); with U-251, > 10 µM (inactive); in the assay with SR, 26.1 µM (inactive); with SNB-19 it was 56.9 µM (inactive); in the assay on HCT-15 it was 19 µM. The GI50 in the assay with LOX IMVI was 45.6 µM (inactive); in the assay on SN12C it was 30.9 µM (inactive); in the assay with HCT-116, 28.1 µM (inactive); with UACC-257 it was 28.8 µM (inactive); in the assay on SF-268, 25.8 µM (inactive); with TK-10 it was 35.8 µM (inactive). For the same compound, the GI50 in the assay on EKVX was 89.5 µM (inactive).
With `O=C(O)C1=C(Cl)c2ccccc2S1(=O)=O`, the GI50 in the assay with OVCAR-8 is > 100 µM (inactive); in the assay on RPMI-8226 it was > 100 µM (inactive); in the assay with SNB-19 it was > 100 µM (inactive); with HCT-15, greater than 100 µM; with LOX IMVI, > 100 µM (inactive); in the assay with SN12C it was > 100 µM (inactive). Also, the GI50 in the assay on UACC-257, in the assay with SF-268, in the assay with TK-10, in the assay with EKVX and with SK-MEL-5 was > 100 µM (inactive) each time.
Regarding `COC12C=CC(CC1)c1c(O)ccc(O)c12` (stereo not drawn), the GI50 was 33 µM (inactive) in the assay with OVCAR-8; 50.8 µM (inactive) in the assay with RPMI-8226; 38.9 µM (inactive) with U-251; 5.6 µM (inactive) in the assay on SR; > 70.6 µM (inactive) with SNB-19; 29.7 µM with HCT-15. For the same compound, the GI50 in the assay with SN12C was 59.3 µM (inactive); in the assay on HCT-116 it was 40.7 µM (inactive); in the assay on UACC-257, > 84.9 µM (inactive); in the assay on SF-268 it was > 31.6 µM (inactive); in the assay with TK-10, > 49.7 µM (inactive); in the assay with EKVX it was > 66.2 µM (inactive). Moreover, the GI50 in the assay with SK-MEL-5 is 45 µM (inactive).
Regarding `CC(C)N(C(=O)C12CC3CC(CC(C3)C1)C2)C(C)C`, the GI50 was > 50 µM (inactive) with OVCAR-8; > 50 µM (inactive) with RPMI-8226; > 50 µM (inactive) in the assay on U-251; > 50 µM (inactive) in the assay on SNB-19; greater than 50 µM with HCT-15; > 50 µM (inactive) with LOX IMVI. For the same compound, the GI50 with SN12C, in the assay with HCT-116, in the assay with UACC-257, in the assay with SF-268, in the assay with TK-10 and in the assay on EKVX was > 50 µM (inactive) throughout. Further, in the assay on SK-MEL-5, the GI50 was > 50 µM (inactive).
With `CN(C(=O)c1ccc([N+](=O)[O-])cc1)c1ccccc1`, the GI50 in the assay on OVCAR-8 was > 100 µM (inactive); in the assay with RPMI-8226 it was > 100 µM (inactive); in the assay with U-251, > 100 µM (inactive); in the assay with SNB-19, > 100 µM (inactive); in the assay on HCT-15, greater than 100 µM; with LOX IMVI, > 100 µM (inactive). The GI50 in the assay on SN12C, in the assay on HCT-116, in the assay on UACC-257, in the assay with SF-268 and in the assay on EKVX was > 100 µM (inactive) in each case.
Regarding `C/C(=C(/C)c1cc[n+](C)cc1)c1cc[n+](C)cc1`, the GI50 with OVCAR-8 is > 75 µM (inactive); with RPMI-8226, 28 µM (inactive); in the assay on U-251, > 75 µM (inactive); with SNB-19, > 75 µM (inactive); in the assay with HCT-15, 52.7 µM; in the assay on LOX IMVI, 43.6 µM (inactive). The GI50 in the assay with SN12C, in the assay with HCT-116, with UACC-257, in the assay on SF-268, with TK-10 and in the assay on EKVX was > 75 µM (inactive) each time. Besides, in the assay on SK-MEL-5, the GI50 was > 75 µM (inactive).
`CC(=O)Oc1cc(OC(C)=O)c(OC(C)=O)c2c1CC1C(=O)C3(CCc4ccccc43)C(=O)C1C2` (stereo not drawn): the GI50 was 14.2 µM (inactive) in the assay with OVCAR-8; 0.555 µM (active) in the assay on RPMI-8226; 15.8 µM (inactive) in the assay with U-251; 18.1 µM in the assay on HCT-15; 6.67 µM (inactive) in the assay with LOX IMVI; 17.3 µM (inactive) in the assay with SN12C. The GI50 was > 10 µM (inactive) in the assay on SF-268, 17.4 µM (inactive) in the assay with TK-10 and 20 µM (inactive) in the assay on EKVX.
`O=C(O)CCCc1cc2c(s1)-c1cccc3cccc-2c13`: the GI50 in the assay with OVCAR-8 is 39.4 µM (inactive); with RPMI-8226, 21.5 µM (inactive); with U-251, 25.4 µM (inactive); with SR, 23.7 µM (inactive); in the assay on SNB-19 it was 27.4 µM (inactive); in the assay on HCT-15, 20.2 µM. Further, the GI50 in the assay on LOX IMVI is 21.9 µM (inactive); in the assay on SN12C, 26 µM (inactive); with HCT-116, 34.8 µM (inactive); in the assay with UACC-257, 22.6 µM (inactive); in the assay with SF-268 it was 39.6 µM (inactive); in the assay on TK-10, 49 µM (inactive).
Consider `O=C1C=C(Nc2cc(Cl)ccc2Cl)c2ccccc2C1=O`, for which the GI50 in the assay on OVCAR-8 was 16 µM (inactive); in the assay on RPMI-8226 it was 20.9 µM (inactive); in the assay on U-251, 25.2 µM (inactive); in the assay on SNB-19, 46.2 µM (inactive); in the assay with HCT-15 it was 26.5 µM; in the assay on SN12C it was 38.5 µM (inactive). The GI50 with HCT-116 is 34.1 µM (inactive); in the assay on UACC-257, 24 µM (inactive); in the assay with SF-268, 64.3 µM (inactive); in the assay with EKVX, > 100 µM (inactive).

The record behind these values is ChEMBL document CHEMBL1201862, “PubChem BioAssay data set” (2004).
